Experimental findings from ChEMBL document CHEMBL1142760, “Glycosidase inhibition by 1-glycosyl-4-phenyl triazoles” (Bioorg Med Chem Lett, 2005) are described below.

Bounds are passed on as bounds.

Assay [1] concerns the target T1, Alpha-galactosidase (Escherichia coli K-12) (UniProt P06720).
T1 sequence (whole entry): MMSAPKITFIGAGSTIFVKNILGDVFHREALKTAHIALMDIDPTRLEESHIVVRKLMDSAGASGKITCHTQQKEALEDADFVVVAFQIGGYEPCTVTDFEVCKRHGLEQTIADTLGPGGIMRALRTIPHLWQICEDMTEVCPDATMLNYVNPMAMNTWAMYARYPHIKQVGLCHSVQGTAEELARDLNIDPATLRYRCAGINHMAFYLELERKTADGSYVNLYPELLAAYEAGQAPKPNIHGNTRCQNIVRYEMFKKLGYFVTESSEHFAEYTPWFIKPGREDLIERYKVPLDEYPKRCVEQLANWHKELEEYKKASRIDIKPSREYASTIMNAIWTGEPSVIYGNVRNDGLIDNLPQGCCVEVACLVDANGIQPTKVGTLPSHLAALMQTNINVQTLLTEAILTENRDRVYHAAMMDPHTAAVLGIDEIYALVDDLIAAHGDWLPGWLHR
In words: Percent inhibition against Escherichia coli galactosidase at 0.24 mM; n>=3.

Assay [2] concerns the target T1, Alpha-galactosidase (Escherichia coli K-12). In words: Percent inhibition against Escherichia coli galactosidase at 0.24 mM; n>=2.

In general, inhibition refers to the drop in the measured response relative to a control, in per cent. In the case of `OC[C@H]1NC[C@H](O)[C@@H](O)[C@@H]1O`, the inhibition in assay [1] is less than 20%.
Take `OC[C@@H]1O[C@@H](n2cc(-c3ccccc3)nn2)[C@@H](O)[C@@H](O)[C@H]1O`: in assay [1], the inhibition was 30%.
In turn, `OC[C@@H]1O[C@@H](n2cc(-c3ccccc3)nn2)[C@@H](O)[C@@H](O)[C@@H]1O` displayed an inhibition in assay [2] of less than 20%.
